In ChEMBL document CHEMBL1201862, “PubChem BioAssay data set” (2004):
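Results reflect a 48-hour exposure of cells in 96-well plates to compound at five concentrations. GI50: concentration for 50% inhibition of growth.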 Activity calls are given as the source filed them. Rule as the data show it: active = GI50 up to about 1.1 µM and inactive = higher.

Columns and labels:
Experiment in all cases: growth of human tumour cells (NCI), 48 h
TK-10 = system: TK-10
LOX IMVI = system: LOX IMVI
HCT-116 = system: HCT-116
OVCAR-3 = system: OVCAR-3
HOP-92 = system: HOP-92
M14 = system: M14
MDA-MB-435 = system: MDA-MB-435
UACC-62 = system: UACC-62
SR = system: SR
OVCAR-5 = system: OVCAR-5
RXF 393 = system: RXF 393
IGROV-1 = system: IGROV-1
SK-MEL-2 = system: SK-MEL-2
SNB-19 = system: SNB-19
COLO 205 = system: COLO 205
NCI-H23 = system: NCI-H23
PC-3 = system: PC-3
CAKI-1 = system: CAKI-1
OVCAR-4 = system: OVCAR-4
MDA-MB-231 = system: MDA-MB-231

| Structure (SMILES) | GI50 (TK-10) | GI50 (LOX IMVI) | GI50 (HCT-116) | GI50 (OVCAR-3) | GI50 (HOP-92) | GI50 (M14) | GI50 (MDA-MB-435) | GI50 (UACC-62) | GI50 (SR) | GI50 (OVCAR-5) | GI50 (RXF 393) | GI50 (IGROV-1) | GI50 (SK-MEL-2) | GI50 (SNB-19) | GI50 (COLO 205) | GI50 (NCI-H23) | GI50 (PC-3) | GI50 (CAKI-1) | GI50 (OVCAR-4) | GI50 (MDA-MB-231) |
| --- | --- | --- | --- | --- | --- | --- | --- | --- | --- | --- | --- | --- | --- | --- | --- | --- | --- | --- | --- | --- |
| CN(C)CCOc1ccc2[nH]c(C(=O)N3CC(CCl)c4c3cc(NC(=O)OCc3ccc([N+](=O)[O-])cc3)c3ccccc43)cc2c1 (stereo not given) | 14.2 µM (inactive) | 1.45 µM (inactive) | 0.794 µM (active) | 1.63 µM (inactive) | 1.5 µM (inactive) | 1.63 µM (inactive) | 1.6 µM (inactive) | 1.83 µM (inactive) | 0.533 µM (active) | 1.6 µM (inactive) | 1.51 µM (inactive) | 1.45 µM (inactive) | 2.14 µM (inactive) | 1.71 µM (inactive) | 1.64 µM (inactive) | 1.36 µM (inactive) | 1.46 µM (inactive) | 1.18 µM (inactive) | 1.99 µM (inactive) | 2.14 µM (inactive) |
| COC(=O)C1=C(C(=O)OC)C(C(=O)OC)C(C(=O)OC)C(C(=O)OC)(C(=O)OC)C(C(=O)OC)=C1C(=O)OC (stereo not given) | 15.6 µM (inactive) | 13.5 µM (inactive) | 7.36 µM (inactive) | 15.1 µM (inactive) | 6.89 µM (inactive) | 15.1 µM (inactive) | 18.7 µM (inactive) | 15.5 µM (inactive) | 0.285 µM (active) | 19.3 µM (inactive) | 7.43 µM (inactive) | 18.1 µM (inactive) | 17.9 µM (inactive) | 17.6 µM (inactive) | 4.27 µM (inactive) | 18.6 µM (inactive) | 16.5 µM (inactive) | 15.1 µM (inactive) | 22.8 µM (inactive) | 20.9 µM (inactive) |
| CCOC(=O)C(NCc1ccc2c(c1)OCO2)(NC(=O)c1ccccc1)C(F)(F)F (stereo not given) | > 100 µM (inactive) | > 100 µM (inactive) | 89.1 µM (inactive) | > 100 µM (inactive) | 41.9 µM (inactive) | > 100 µM (inactive) | > 100 µM (inactive) | > 100 µM (inactive) | 36 µM (inactive) | > 100 µM (inactive) | > 100 µM (inactive) | > 100 µM (inactive) | > 100 µM (inactive) | > 100 µM (inactive) | > 100 µM (inactive) | 62.2 µM (inactive) | 65 µM (inactive) | > 100 µM (inactive) | 76.7 µM (inactive) | 64.4 µM (inactive) |
| Cc1ccc(Nc2c(C#N)[n+]([O-])c3cc(Cl)ccc3[n+]2[O-])cc1 | 29 µM (inactive) | 6.85 µM (inactive) | 8.79 µM (inactive) | 4.13 µM (inactive) | > 100 µM (inactive) | 30.3 µM (inactive) | 44.7 µM (inactive) | 20.7 µM (inactive) | 7.98 µM (inactive) | > 100 µM (inactive) | > 22.1 µM (inactive) | 15.5 µM (inactive) | > 100 µM (inactive) | > 100 µM (inactive) | 18.4 µM (inactive) | 40.5 µM (inactive) | 9.66 µM (inactive) | 42 µM (inactive) | 24.1 µM (inactive) | > 100 µM (inactive) |
| COc1cc(/C=C2\C(=O)N(c3cccc(NC(C)=O)c3)C(c3ccccc3)S2(=O)=O)cc(OC)c1OC (stereo not given) | > 100 µM (inactive) | 54.2 µM (inactive) | 37.8 µM (inactive) | 56 µM (inactive) | > 100 µM (inactive) | > 100 µM (inactive) | 47.9 µM (inactive) | 80.9 µM (inactive) | 24.9 µM (inactive) | > 100 µM (inactive) | > 100 µM (inactive) | > 100 µM (inactive) | > 100 µM (inactive) | > 100 µM (inactive) | 63.1 µM (inactive) | 79.4 µM (inactive) | 42.6 µM (inactive) | > 100 µM (inactive) | 70.5 µM (inactive) | > 100 µM (inactive) |
